Tests used:
JAK1 = JAK1 (Homo sapiens (Human), UniProt P23458); experiment: LanthaScreen JAK biochemical assay (JAK1)
JAK2 = JAK2 (Homo sapiens (Human), UniProt O60674); experiment: LanthaScreen JAK biochemical assay (JAK2)
JAK3 = JAK3 (Homo sapiens (Human), UniProt P52333); experiment: LanthaScreen JAK biochemical assay (JAK3)
[1] = tested on: IL-4 induced STAT6 phosphorylation in THP-1 human monocytic cells; experiment: Cellular JAK potency assay, THP-1
[2] = tested on: IL-13 induced STAT6 phosphorylation in BEAS-2B human lung epithelial cells; experiment: AlphaScreen cellular JAK potency assay, BEAS-2B
Tyk2 = Tyk2 (Homo sapiens (Human), UniProt P29597); experiment: LanthaScreen JAK biochemical assay (Tyk2)
Tyk2, sequence (P29597 whole entry): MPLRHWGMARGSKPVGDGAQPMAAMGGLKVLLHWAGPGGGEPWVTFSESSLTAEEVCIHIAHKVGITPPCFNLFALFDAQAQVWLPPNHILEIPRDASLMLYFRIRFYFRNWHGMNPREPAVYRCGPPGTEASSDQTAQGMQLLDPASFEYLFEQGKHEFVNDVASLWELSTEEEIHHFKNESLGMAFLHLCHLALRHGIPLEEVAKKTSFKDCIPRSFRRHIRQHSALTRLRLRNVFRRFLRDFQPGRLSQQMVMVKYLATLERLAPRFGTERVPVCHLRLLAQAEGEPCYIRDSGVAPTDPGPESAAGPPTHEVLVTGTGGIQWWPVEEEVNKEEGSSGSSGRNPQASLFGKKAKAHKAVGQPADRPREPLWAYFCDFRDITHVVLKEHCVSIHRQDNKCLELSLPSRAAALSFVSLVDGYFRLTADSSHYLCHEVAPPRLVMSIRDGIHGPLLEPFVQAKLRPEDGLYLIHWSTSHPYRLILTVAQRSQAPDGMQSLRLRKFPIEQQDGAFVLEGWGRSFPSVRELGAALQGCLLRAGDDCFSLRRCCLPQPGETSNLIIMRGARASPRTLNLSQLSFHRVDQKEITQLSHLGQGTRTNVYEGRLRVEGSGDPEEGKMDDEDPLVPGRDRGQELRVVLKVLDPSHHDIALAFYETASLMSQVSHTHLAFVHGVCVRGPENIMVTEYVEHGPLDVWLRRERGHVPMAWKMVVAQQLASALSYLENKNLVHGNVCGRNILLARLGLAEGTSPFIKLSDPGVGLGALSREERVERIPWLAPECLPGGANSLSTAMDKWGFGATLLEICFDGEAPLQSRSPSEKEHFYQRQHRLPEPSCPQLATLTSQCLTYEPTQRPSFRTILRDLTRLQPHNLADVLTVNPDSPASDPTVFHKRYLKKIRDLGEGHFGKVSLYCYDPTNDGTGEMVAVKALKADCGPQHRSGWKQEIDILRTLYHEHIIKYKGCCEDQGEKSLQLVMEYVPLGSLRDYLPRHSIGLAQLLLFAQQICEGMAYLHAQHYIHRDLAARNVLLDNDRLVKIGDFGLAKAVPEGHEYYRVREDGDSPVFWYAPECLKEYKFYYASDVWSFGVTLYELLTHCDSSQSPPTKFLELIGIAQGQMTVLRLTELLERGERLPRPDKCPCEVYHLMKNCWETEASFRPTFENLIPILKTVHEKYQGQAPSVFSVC

[3] = IL-4 induced STAT6 phosphorylation, THP-1 cells
[4] = IL-13 induced STAT6 phosphorylation, BEAS-2B cells
[5] = THP-1 cells, IL-4 induced STAT6 phosphorylation
[6] = BEAS-2B cells, IL-13 induced STAT6 phosphorylation

JAK1, sequence (P23458 whole entry): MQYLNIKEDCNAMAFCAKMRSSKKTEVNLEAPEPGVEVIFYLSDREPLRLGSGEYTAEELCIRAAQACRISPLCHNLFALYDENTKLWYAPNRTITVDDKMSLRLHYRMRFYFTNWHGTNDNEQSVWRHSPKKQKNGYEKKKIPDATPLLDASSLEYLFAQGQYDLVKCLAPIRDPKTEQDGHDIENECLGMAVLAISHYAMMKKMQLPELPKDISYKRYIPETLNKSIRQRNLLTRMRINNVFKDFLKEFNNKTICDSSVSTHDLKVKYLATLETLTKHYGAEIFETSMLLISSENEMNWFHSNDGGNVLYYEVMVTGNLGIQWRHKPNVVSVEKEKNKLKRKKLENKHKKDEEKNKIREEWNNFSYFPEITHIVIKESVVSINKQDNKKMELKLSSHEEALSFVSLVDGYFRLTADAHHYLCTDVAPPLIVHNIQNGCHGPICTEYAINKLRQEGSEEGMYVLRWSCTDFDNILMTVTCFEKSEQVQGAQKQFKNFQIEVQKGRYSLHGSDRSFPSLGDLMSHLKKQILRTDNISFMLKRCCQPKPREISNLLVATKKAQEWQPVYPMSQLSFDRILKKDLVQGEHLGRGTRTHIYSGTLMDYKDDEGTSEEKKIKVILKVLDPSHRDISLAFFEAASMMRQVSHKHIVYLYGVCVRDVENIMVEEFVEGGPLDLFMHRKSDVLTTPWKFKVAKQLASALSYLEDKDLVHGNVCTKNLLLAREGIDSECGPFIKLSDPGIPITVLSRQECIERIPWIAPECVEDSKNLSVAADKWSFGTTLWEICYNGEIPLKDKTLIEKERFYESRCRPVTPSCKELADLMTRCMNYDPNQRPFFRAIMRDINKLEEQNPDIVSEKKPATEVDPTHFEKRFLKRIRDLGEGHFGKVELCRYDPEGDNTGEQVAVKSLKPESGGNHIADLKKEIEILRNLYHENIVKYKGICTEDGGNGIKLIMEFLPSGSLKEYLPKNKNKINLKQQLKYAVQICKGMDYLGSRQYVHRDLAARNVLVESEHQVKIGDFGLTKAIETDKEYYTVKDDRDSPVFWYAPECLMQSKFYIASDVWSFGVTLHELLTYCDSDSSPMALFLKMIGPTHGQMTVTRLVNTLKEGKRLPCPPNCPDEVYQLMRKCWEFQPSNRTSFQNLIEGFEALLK
JAK2, sequence (O60674 whole entry): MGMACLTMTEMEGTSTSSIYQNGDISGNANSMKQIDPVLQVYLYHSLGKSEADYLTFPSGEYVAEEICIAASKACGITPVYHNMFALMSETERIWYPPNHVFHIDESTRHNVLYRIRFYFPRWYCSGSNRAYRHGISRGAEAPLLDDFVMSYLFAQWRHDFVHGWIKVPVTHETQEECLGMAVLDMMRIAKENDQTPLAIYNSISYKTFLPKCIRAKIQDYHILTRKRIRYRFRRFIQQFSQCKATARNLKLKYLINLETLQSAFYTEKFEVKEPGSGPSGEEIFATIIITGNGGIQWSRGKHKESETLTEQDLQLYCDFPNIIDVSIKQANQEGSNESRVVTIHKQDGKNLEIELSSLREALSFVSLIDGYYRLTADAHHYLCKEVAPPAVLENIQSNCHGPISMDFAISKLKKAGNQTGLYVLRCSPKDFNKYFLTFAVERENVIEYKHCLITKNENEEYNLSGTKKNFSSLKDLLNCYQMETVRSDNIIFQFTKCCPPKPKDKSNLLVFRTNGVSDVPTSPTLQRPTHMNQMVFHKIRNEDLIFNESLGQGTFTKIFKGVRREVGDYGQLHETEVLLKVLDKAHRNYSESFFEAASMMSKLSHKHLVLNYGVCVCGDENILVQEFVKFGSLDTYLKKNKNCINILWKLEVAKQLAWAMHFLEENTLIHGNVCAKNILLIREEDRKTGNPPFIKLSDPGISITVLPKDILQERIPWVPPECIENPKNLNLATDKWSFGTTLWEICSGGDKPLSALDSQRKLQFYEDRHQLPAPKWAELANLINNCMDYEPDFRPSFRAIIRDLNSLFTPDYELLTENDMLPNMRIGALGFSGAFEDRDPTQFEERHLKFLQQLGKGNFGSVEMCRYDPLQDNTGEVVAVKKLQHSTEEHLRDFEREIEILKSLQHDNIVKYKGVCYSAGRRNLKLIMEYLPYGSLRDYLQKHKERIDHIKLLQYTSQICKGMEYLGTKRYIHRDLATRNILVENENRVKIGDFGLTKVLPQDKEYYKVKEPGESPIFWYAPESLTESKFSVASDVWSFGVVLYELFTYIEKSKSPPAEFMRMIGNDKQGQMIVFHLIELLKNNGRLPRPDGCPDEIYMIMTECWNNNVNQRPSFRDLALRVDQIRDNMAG

Structure (SMILES)	JAK 1 (pKi) (JAK1)	JAK 2 (pKi) (JAK2)	JAK 3 (pKi) (JAK3)	THP-1 IL4 pIC50 [1, 3]	BEAS2B pIC50 [2, 4]	Tyk 2 (pKi) (Tyk2)	THP-1 IL4 pIC50 [1, 5]	BEAS2B pIC50 [2, 6]
Cc1cc(Nc2cc3ncccc3c(N[C@@H]3C[C@H]4CCC[C@@H](C3)N4Cc3ccc(O)cc3)n2)n[nH]1 [Example 1-50]	A (A represents a pKi value≥10 (Ki≤0.1 nM))	A (A represents a pKi value≥10 (Ki≤0.1 nM))	C (C represents a pKi value between 7 and 9 (Ki between 100 nM and 1 nM))	B (B represents a pEC50 value between 6.7 and 7.5 (EC50 between 200 nM and 32 nM))	–	–	–	–
Cc1cc(Nc2cc3ncccc3c(N[C@@H]3C[C@H]4CC[C@@H](C3)N4C(=O)C(C)F)n2)n[nH]1 (stereo partly drawn) [Example 2-3]	B (B represents a pKi value between 9 and 10 (Ki between 1 nM and 0.1 nM))	B (B represents a pKi value between 9 and 10 (Ki between 1 nM and 0.1 nM))	C (C represents a pKi value between 7 and 9 (Ki between 100 nM and 1 nM))	B (B represents a pEC50 value between 6.7 and 7.5 (EC50 between 200 nM and 32 nM))	A (A represents a pEC50 value≥7.5 (EC50≤32 nM))	–	–	–
CCC(C)C(=O)N1C2CCCC1CC(Nc1nc(Nc3cc(C)[nH]n3)cc3ncccc13)C2 (stereo not drawn) [Example 2-18]	B (B represents a pKi value between 9 and 10 (Ki between 1 nM and 0.1 nM))	B (B represents a pKi value between 9 and 10 (Ki between 1 nM and 0.1 nM))	C (C represents a pKi value between 7 and 9 (Ki between 100 nM and 1 nM))	A (A represents a pEC50 value≥7.5 (EC50≤32 nM))	–	B (B represents a pKi value between 9 and 10 (Ki between 1 nM and 0.1 nM))	–	–
C=CCOC(=O)N1[C@@H]2CC[C@H]1C[C@H](Nc1nc(Nc3cc(C)[nH]n3)cc3nc(OC)ccc13)C2 [Example 5-7]	B (B represents a pKi value between 9 and 10 (Ki between 1 nM and 0.1 nM))	–	C (C represents a pKi value between 7 and 9 (Ki between 100 nM and 1 nM))	B (B represents a pEC50 value between 6.7 and 7.5 (EC50 between 200 nM and 32 nM))	A (A represents a pEC50 value≥7.5 (EC50≤32 nM))	–	–	–
CCS(=O)(=O)N1[C@@H]2CCC[C@H]1C[C@H](Nc1nc(Nc3cc(C)[nH]n3)cc3nc(CN4CCOCC4)ccc13)C2 [Example 5-23]	A (A represents a pKi value≥10 (Ki≤0.1 nM))	A (A represents a pKi value≥10 (Ki≤0.1 nM))	B (B represents a pKi value between 9 and 10 (Ki between 1 nM and 0.1 nM))	A (A represents a pEC50 value≥7.5 (EC50≤32 nM))	–	–	–	–
Cc1cc(Nc2cc3nc(CN4CCC(F)(F)CC4)ccc3c(N[C@@H]3C[C@H]4CC[C@@H](C3)N4CC(C)C)n2)n[nH]1 [Example 5-34]	B (B represents a pKi value between 9 and 10 (Ki between 1 nM and 0.1 nM))	B (B represents a pKi value between 9 and 10 (Ki between 1 nM and 0.1 nM))	C (C represents a pKi value between 7 and 9 (Ki between 100 nM and 1 nM))	B (B represents a pEC50 value between 6.7 and 7.5 (EC50 between 200 nM and 32 nM))	–	B (B represents a pKi value between 9 and 10 (Ki between 1 nM and 0.1 nM))	–	–
Cc1cnc2cc(Nc3cc(C)[nH]n3)nc(N[C@@H]3C[C@H]4CC[C@@H](C3)N4C(=O)OCC(C)C)c2c1 [Example 6-3]	B (B represents a pKi value between 9 and 10 (Ki between 1 nM and 0.1 nM))	B (B represents a pKi value between 9 and 10 (Ki between 1 nM and 0.1 nM))	C (C represents a pKi value between 7 and 9 (Ki between 100 nM and 1 nM))	–	–	–	B (B represents a pEC50 value between 6.7 and 7.5 (EC50 between 200 nM and 32 nM))	B (B represents a pEC50 value between 6.7 and 7.5 (EC50 between 200 nM and 32 nM))
Cc1cnc2cc(Nc3cc(C)[nH]n3)nc(N[C@@H]3C[C@H]4CCC[C@@H](C3)N4CCC#N)c2c1 [Example 6-6]	–	A (A represents a pKi value≥10 (Ki≤0.1 nM))	B (B represents a pKi value between 9 and 10 (Ki between 1 nM and 0.1 nM))	–	–	–	A (A represents a pEC50 value≥7.5 (EC50≤32 nM))	A (A represents a pEC50 value≥7.5 (EC50≤32 nM))
COc1cnc2cc(Nc3cc(C)[nH]n3)nc(N[C@@H]3C[C@H]4CC[C@@H](C3)N4C(=O)OCC(C)C)c2c1 [Example 6-25]	–	–	C (C represents a pKi value between 7 and 9 (Ki between 100 nM and 1 nM))	–	–	–	B (B represents a pEC50 value between 6.7 and 7.5 (EC50 between 200 nM and 32 nM))	A (A represents a pEC50 value≥7.5 (EC50≤32 nM))
CNC(=O)CN1[C@@H]2CC[C@H]1C[C@H](Nc1nc(Nc3cc(C)[nH]n3)cc3ncc(C(=O)OC)cc13)C2 [Example 6-42]	B (B represents a pKi value between 9 and 10 (Ki between 1 nM and 0.1 nM))	B (B represents a pKi value between 9 and 10 (Ki between 1 nM and 0.1 nM))	C (C represents a pKi value between 7 and 9 (Ki between 100 nM and 1 nM))	–	–	–	C (C represents a pEC50 value<6.7 (EC50>200 nM))	–
Cc1cc(Nc2cc3ncc(S(C)(=O)=O)cc3c(N[C@@H]3C[C@H]4CC[C@@H](C3)N4C(=O)CC#N)n2)n[nH]1 [Example 6-51]	B (B represents a pKi value between 9 and 10 (Ki between 1 nM and 0.1 nM))	B (B represents a pKi value between 9 and 10 (Ki between 1 nM and 0.1 nM))	C (C represents a pKi value between 7 and 9 (Ki between 100 nM and 1 nM))	–	–	–	C (C represents a pEC50 value<6.7 (EC50>200 nM))	–
Cc1cc(Nc2nc(N[C@@H]3C[C@H]4CC[C@@H](C3)N4CCC#N)c3cccnc3c2F)n[nH]1 [Example 8-1]	B (B represents a pKi value between 9 and 10 (Ki between 1 nM and 0.1 nM))	B (B represents a pKi value between 9 and 10 (Ki between 1 nM and 0.1 nM))	C (C represents a pKi value between 7 and 9 (Ki between 100 nM and 1 nM))	–	–	–	B (B represents a pEC50 value between 6.7 and 7.5 (EC50 between 200 nM and 32 nM))	–
Cc1cc(Nc2nc(N[C@@H]3C[C@H]4CC[C@@H](C3)N4S(C)(=O)=O)c3cccnc3c2F)n[nH]1 [Example 8-2]	B (B represents a pKi value between 9 and 10 (Ki between 1 nM and 0.1 nM))	B (B represents a pKi value between 9 and 10 (Ki between 1 nM and 0.1 nM))	C (C represents a pKi value between 7 and 9 (Ki between 100 nM and 1 nM))	–	–	–	A (A represents a pEC50 value≥7.5 (EC50≤32 nM))	C (C represents a pEC50 value<6.7 (EC50>200 nM))
Cc1cc(Nc2nc(N[C@@H]3C[C@H]4CCC[C@@H](C3)N4CCC#N)c3cccnc3c2F)n[nH]1 [Example 8-9]	B (B represents a pKi value between 9 and 10 (Ki between 1 nM and 0.1 nM))	B (B represents a pKi value between 9 and 10 (Ki between 1 nM and 0.1 nM))	C (C represents a pKi value between 7 and 9 (Ki between 100 nM and 1 nM))	–	–	–	B (B represents a pEC50 value between 6.7 and 7.5 (EC50 between 200 nM and 32 nM))	–
Cc1cc(Nc2nc(N[C@@H]3C[C@H]4CCC[C@@H](C3)N4S(=O)(=O)c3cncc(F)c3)c3cccnc3c2F)n[nH]1 [Example 8-13]	B (B represents a pKi value between 9 and 10 (Ki between 1 nM and 0.1 nM))	B (B represents a pKi value between 9 and 10 (Ki between 1 nM and 0.1 nM))	C (C represents a pKi value between 7 and 9 (Ki between 100 nM and 1 nM))	–	–	–	B (B represents a pEC50 value between 6.7 and 7.5 (EC50 between 200 nM and 32 nM))	A (A represents a pEC50 value≥7.5 (EC50≤32 nM))
Cc1cc(Nc2nc(N[C@@H]3C[C@H]4CCC[C@@H](C3)N4Cc3ccncc3)c3cccnc3c2F)n[nH]1 [Example 8-14]	B (B represents a pKi value between 9 and 10 (Ki between 1 nM and 0.1 nM))	B (B represents a pKi value between 9 and 10 (Ki between 1 nM and 0.1 nM))	C (C represents a pKi value between 7 and 9 (Ki between 100 nM and 1 nM))	–	–	–	A (A represents a pEC50 value≥7.5 (EC50≤32 nM))	A (A represents a pEC50 value≥7.5 (EC50≤32 nM))
Cc1cnc2c(F)c(Nc3cc(C)[nH]n3)nc(N[C@@H]3C[C@H]4CCC[C@@H](C3)N4S(=O)(=O)c3cccnc3)c2c1 [Example 8-24]	B (B represents a pKi value between 9 and 10 (Ki between 1 nM and 0.1 nM))	B (B represents a pKi value between 9 and 10 (Ki between 1 nM and 0.1 nM))	C (C represents a pKi value between 7 and 9 (Ki between 100 nM and 1 nM))	–	–	–	B (B represents a pEC50 value between 6.7 and 7.5 (EC50 between 200 nM and 32 nM))	B (B represents a pEC50 value between 6.7 and 7.5 (EC50 between 200 nM and 32 nM))

From patent publication US10072026B2, “Crystalline form of 3-((1R,3s,5S)-3-((7-((5-methyl-1H-pyrazol-3-yl)amino)-1,6-naphthyridin-5-yl)amino)-8-azabicyclo[3.2.1]octan-8-yl)propanenitrile” (priority 2015, dated 2018)
